Experimental data taken from US20080118494A1, “Compositions For Detection Of Latent Hiv Reactivation And Methods Of Using The Same” (priority 2004, published 2008).

Tests used:
[1] = tested on: latent HIV-1 infection in bulk population of latently infected JLTRG cells; test: Reactivation of latent HIV-1 in a bulk population of latently infected cells, flow cytometry; type: cell-based; settings: optimal concentration of each compound, day 57 bulk population, 100,000 viable cells counted
Method: (A) Jurkat cells were infected with an EGFP expressing, replication incompetent reporter virus and the level of productive HIV-1 infection at each indicated time-point was directly assessed by flow cytometric analysis for EGFP expression (untreated; black circles). Levels of initial non-productive and later on latent HIV-1 infection was determined 24 hours following TNF-α stimulation (black squares). The results represent the mean ±S.D. of three independent experiments.
a) Quantification of the HIV-1 reactivating capabilities of test compounds. Following infection, HIV-1 integrates into the cellular genome. Integration is random, although HIV-1 preferentially integrates into euchromatin structures. Latency development can be thus influenced by a multitude of factors that alter gene expression or DNA structure, such as divergent gene expression patterns or the cell cycle stage at the time point of viral integration. Although the reporter cell lines are representative for the majority of latently infected cells and reliably identify most reactivating agents during the screening effort, they can not allow quantification of the capability of the individual compounds to reactivate HIV-1 infection from a diverse population of latently infected cells. To account for the influence that the side of integration of a latent virus can have on a compounds ability to reactivate the virus, a bulk population of latently infected cells (FIG. 7) was established. Following infection of JLTRG cells with HIV-1 NL43, a rapid increase of the level of infection can be observed. On day 3, an average 27% of the cells were productively infected. […] Until day 15, the percentage of productively infected cells rapidly declined to 3% of the overall cell population. At this time point, an additional 5% of the cells were non-productively infected. […] Since 1×10^6 cells were initially infected, and virus mediated inhibition of cell proliferation influences the relative level of infection over time can be excluded, it can be calculated that the latently infected cell population should consist of […] individual latently infected cells. This bulk population of cells allows quantification of the capability of the respective compounds to reactivate latent HIV-1. […] Each compound was titrated over a two-log concentration range to allow for optimal reactivation. The results for the optimal concentration of each compound are depicted in FIG. 7B. […] TNF-α (10 ng/ml) reactivated latent HIV-1 infection in 5% of the cells, whereas the DNA histone deacetylase inhibitors trichostatin A (TSA) and sodium butyrate (NaBu) reactivated latent HIV-1 infection in only 3% or 2.5% of the cells, respectively. To achieve an accurate estimate of the differences in the capability of different agents to reactivate HIV-1 infection it is important to run a sufficiently high number of cells. For this flow cytometry based analysis, 100,000 cells viable per sample were counted.

[2] = tested on: latent HIV-1 infection in human thymocytes derived from SCID-hu (Thy/liv) mice; test: Ex vivo reactivation of latent HIV-1 in thymocytes from infected SCID-hu (Thy/Liv) mice, EYFP flow cytometry; type: cell-based; settings: for EYFP+ cells: 24 h after depletion of EYFP+ cells, untreated 50; for induction of latent HIV-1 expression in thymocytes: range among tissue samples of four animals
Method: SCID-hu (Thy/liv) mice were infected with HIV-1 NLENY1-IRES, and thymocytes were isolated 2-4 weeks following infection. Cells were cultured for two days in the presence of AZT and indinavir to stop de novo infection and then subjected to fluorescence activated cell sorting to remove all EYFP^+ cells. Immediately following cell separation, the cells were seeded at a concentration of 1×10^6 cell/ml, cultured in supplemented RPMI 1640 to determine levels of spontaneous reactivation, stimulated with PMA, TNF-α, activating anti-CD28 antibody (clone 5D10) and the […] sodium butyrate (NaBu; two animals only). Levels of reactivation achieved in HIV-1 infected thymocytes derived from 4 different SCID-hu (Thy/liv) mice following ex vivo reactivation with the indicated stimulators are depicted as fold induction of […].
Isolation of thymocytes from SCID-hu (Thy/Liv) mice. Thy/Liv implants from the infected mice were harvested 2-4 weeks post infection and single cell suspensions generated by dissociation of the tissue. Thymocytes were isolated by Ficoll-Paque density gradient centrifugation and were cultured for two days in RPMI 1640 supplemented with 10% heat-inactivated FBS, 2 mM L-glutamine, 100 U/ml of penicillin, and 100 μg/ml of streptomycin, in the presence of indinavir and AZT, to inhibit de novo infection. Productively infected thymocytes, which expressed EYFP, were then removed from the cultures by FACS sorting. Purity of the resulting EYFP-negative cell population was determined by flow cytometric analysis for EYFP and was usually greater than 99.9%. Immediately following the sort, cells were stimulated. HIV-1 reactivation, as indicated by the de novo expression of EYFP was quantified by flow cytometry, acquiring at least 1×10^6 cells per sample in the live gate.
Reactivation of latent HIV-1 infection by anti-CD28 antibodies in human thymocytes derived from SCID-hu (Thy/liv) mice. Whether activating anti-CD28 antibody would also reactivate latent HIV-1 in a system where latency in primary cells was achieved under in vivo conditions was tested. For this purpose, a modification of the HIV-1 established SCID-hu (Thy/Liv) mouse system was used that has been previously used for the study of HIV-1 latency. Brooks et al., Nat. Med. 7:459-464 (2001). SCID-hu (Thy/Liv) mice were infected with HIV-1 NLENY1-IRES to allow for the easy and direct detection of infected cells using flow cytometry. Levy et al., Proc. Nat. Acad. Sci. 101:4204-4209 (2004). […] Levels of infection were determined by flow cytometry for EYFP, and varied in the different animals between 0.5 and 6% of the total thymocyte population. […] The cultures were then subjected to fluorescence activated cell sorting to remove all EYFP positive cells. […]

Compound	cells in which latent HIV-1 infection was reactivated [1] [%]	EYFP+ cells [2]	induction of latent HIV-1 expression in thymocytes [2]
CCCCCCCCCCCCCC(=O)O[C@@H]1[C@@H](C)[C@@]2(O)[C@@H](C=C(CO)C[C@]3(O)C(=O)C(C)=C[C@@H]23)[C@@H]2C(C)(C)[C@]12OC(C)=O [PMA, 13-phorbol-12-myristate acetate]	7	260 cells of 1×10^6 cells	2.5-7 fold
TNF-α	5	250 cells of 1×10^6 cells	3-6 fold
